Test results published in ChEMBL document CHEMBL6103629 (J Med Chem, 2025).

Columns and labels:
Cytochrome P450 1A2 = Cytochrome P450 1A2 (Homo sapiens, UniProt P05177); test: Inhibition of CYP1A2 in human liver microsomes in the presence of NADPH incubated for 60 mins by LC-MS/MS analysis; assay type: ADME, Microsome
[1] = Permeability across apical to basolateral side in human MDCK-MDR1 cells at 0.1 to 10 uM incubated for 120 mins by LC-MS/MS analysis; assay type: ADME, cell-based, Canis lupus familiaris; details: dog, mdck-mdr1, 2 h, dose 0.1-10 µM
CYP2C19 = CYP2C19 (Homo sapiens, UniProt P33261); test: Inhibition of recombinant human CYP2C19 assessed as residual activity at 1 uM in the presence of NADPH incubated for 60 mins by LC-MS/MS analysis relative to control; assay type: ADME; details: read-out: Activity
CYP2C19, sequence (P33261 whole entry): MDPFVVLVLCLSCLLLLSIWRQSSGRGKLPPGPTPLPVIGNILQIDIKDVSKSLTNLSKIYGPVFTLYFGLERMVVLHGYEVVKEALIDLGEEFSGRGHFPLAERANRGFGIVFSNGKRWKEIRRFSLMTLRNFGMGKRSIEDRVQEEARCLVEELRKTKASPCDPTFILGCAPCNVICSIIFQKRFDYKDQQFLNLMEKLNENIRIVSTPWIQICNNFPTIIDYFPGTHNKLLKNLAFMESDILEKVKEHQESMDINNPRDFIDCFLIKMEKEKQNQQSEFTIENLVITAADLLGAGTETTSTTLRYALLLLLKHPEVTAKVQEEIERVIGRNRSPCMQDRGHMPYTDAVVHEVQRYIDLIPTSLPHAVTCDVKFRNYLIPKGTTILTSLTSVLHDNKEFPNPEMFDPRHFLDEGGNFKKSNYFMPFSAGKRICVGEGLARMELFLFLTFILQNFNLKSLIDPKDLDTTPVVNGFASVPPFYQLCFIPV

CYP2D6 = CYP2D6 (Homo sapiens, UniProt P10635); test: Inhibition of recombinant human CYP2D6 assessed as residual activity at 1 uM in the presence of NADPH incubated for 60 mins by LC-MS/MS analysis relative to control; assay type: ADME; details: read-out: Activity
CYP2D6, sequence (P10635 whole entry): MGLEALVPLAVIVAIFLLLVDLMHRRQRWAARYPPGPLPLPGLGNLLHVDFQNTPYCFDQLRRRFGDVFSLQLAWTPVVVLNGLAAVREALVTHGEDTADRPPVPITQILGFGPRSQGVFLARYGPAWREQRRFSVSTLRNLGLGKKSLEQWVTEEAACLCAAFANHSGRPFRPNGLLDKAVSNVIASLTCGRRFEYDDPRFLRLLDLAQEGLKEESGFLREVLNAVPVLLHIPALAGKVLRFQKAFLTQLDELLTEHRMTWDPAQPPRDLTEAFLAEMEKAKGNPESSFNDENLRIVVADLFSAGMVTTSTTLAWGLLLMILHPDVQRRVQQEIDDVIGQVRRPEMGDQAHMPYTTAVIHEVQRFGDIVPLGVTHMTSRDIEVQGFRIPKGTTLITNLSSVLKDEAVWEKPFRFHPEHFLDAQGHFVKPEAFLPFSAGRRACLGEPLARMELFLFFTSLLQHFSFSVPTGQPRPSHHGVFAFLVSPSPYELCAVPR

[2] = Drug accumulation in female Beagle dogs at 5 mg/kg, IG measured for 7 days by LC-MS/MS analysis; assay type: ADME, organism-based, Canis lupus familiaris; details: dog, in vivo, po, 168 h, time 7 day
[3] = Induction of CYP3A4 mRNA expression in human primary hepatocyte isolated from YND donor at 0.1 to 10 uM incubated for 72 hrs by real-time PCR analysis; assay type: ADME, cell-based; details: hepatocytes, dose 0.1-10 µM
[4] = Drug accumulation in female Sprague-Dawley rat at 5 mg/kg, IG measured for 7 days by LC-MS/MS analysis; assay type: ADME, organism-based; details: in vivo, po, 168 h, time 7 day
[5] = Toxicity in female Balb/c nude mouse xenografted with human NCI-H1703 cells assessed as body weight at 40 mg/kg QD, po measured every 3 days for 25 days at 10 to 60 mg/kg QD, po measured every 3 days for 28 days; assay type: organism-based; details: in vivo, 672 h, time 28 day
[6] = Drug metabolism in Beagle dogs liver cells at 2 uM incubated upto 120 mins by LC-MS/MS analysis; assay type: ADME, cell-based, Canis lupus familiaris; details: dog, 2 h
Cytochrome P450 2C9 = Cytochrome P450 2C9 (Homo sapiens, UniProt P11712); test: Inhibition of CYP2C9 in human liver microsomes in the presence of NADPH incubated for 60 mins by LC-MS/MS analysis; assay type: ADME, Microsome
Cytochrome P450 2C9, sequence (P11712 whole entry): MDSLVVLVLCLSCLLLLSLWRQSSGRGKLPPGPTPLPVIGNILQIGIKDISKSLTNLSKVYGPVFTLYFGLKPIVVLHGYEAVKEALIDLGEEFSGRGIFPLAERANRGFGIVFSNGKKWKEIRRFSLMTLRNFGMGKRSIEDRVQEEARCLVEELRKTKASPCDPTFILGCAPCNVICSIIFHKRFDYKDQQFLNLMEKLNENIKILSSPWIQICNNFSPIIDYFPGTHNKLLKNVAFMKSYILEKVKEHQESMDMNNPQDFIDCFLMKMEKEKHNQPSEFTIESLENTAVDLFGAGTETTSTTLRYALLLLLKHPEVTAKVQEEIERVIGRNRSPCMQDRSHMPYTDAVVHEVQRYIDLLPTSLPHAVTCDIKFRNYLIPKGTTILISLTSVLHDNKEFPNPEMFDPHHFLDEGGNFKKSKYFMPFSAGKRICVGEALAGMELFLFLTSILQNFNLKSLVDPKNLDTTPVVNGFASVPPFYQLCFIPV

[7] = Plasma protein binding in Beagle dog at 1 uM incubated for 5 hrs in HTD dialysis in the presence of verapamil by LC-MS/MS analysis relative to control; assay type: ADME, cell-free, Canis lupus familiaris; details: read-out: PPB (converted)
[8] = Toxicity in male Balb/c nude mouse xenografted with human 22Rv1 cells assessed as body weight at 40 mg/kg QD, po measured every 3 days for 25 days at 10 to 60 mg/kg QD, po measured every 3 days for 18 days; assay type: organism-based; details: in vivo, 432 h, time 18 day
[9] = Permeability across apical to basolateral side in human Caco-2 cells at 0.1 to 10 uM incubated for 120 mins by LC-MS/MS analysis; assay type: ADME, cell-based; details: caco-2, 2 h, dose 0.1-10 µM
[10] = Permeability across basolateral to apical side in human MDCK-MDR1 cells at 0.1 to 10 uM incubated for 120 mins by LC-MS/MS analysis; assay type: ADME, cell-based, Canis lupus familiaris; details: dog, mdck-mdr1, 2 h, dose 0.1-10 µM
CYP2B6 = CYP2B6 (Homo sapiens, UniProt P20813); test: Inhibition of recombinant human CYP2B6 assessed as residual activity at 1 uM in the presence of NADPH incubated for 60 mins by LC-MS/MS analysis relative to control; assay type: ADME; details: read-out: Activity
CYP2B6, sequence (P20813 whole entry): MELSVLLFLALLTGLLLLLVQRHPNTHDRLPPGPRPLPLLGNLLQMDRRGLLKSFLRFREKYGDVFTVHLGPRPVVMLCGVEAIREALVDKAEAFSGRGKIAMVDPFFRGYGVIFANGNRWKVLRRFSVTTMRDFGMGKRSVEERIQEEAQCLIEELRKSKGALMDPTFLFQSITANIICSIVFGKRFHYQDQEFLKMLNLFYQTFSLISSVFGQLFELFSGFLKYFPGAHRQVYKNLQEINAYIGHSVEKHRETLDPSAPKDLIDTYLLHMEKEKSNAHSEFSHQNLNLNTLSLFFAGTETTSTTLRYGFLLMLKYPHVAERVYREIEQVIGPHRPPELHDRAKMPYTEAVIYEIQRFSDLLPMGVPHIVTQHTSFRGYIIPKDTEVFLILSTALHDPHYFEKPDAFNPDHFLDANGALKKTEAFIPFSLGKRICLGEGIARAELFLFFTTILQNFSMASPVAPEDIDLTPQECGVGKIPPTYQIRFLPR

Cytochrome P450 3A4 = Cytochrome P450 3A4 (Homo sapiens, UniProt P08684); test: Inhibition of CYP3A4 in human liver microsomes using testosterone as substrate and in presence of NADPH incubated for 60 mins by LC-MS/MS analysis; assay type: ADME, Microsome
Cytochrome P450 3A4, sequence (P08684 whole entry): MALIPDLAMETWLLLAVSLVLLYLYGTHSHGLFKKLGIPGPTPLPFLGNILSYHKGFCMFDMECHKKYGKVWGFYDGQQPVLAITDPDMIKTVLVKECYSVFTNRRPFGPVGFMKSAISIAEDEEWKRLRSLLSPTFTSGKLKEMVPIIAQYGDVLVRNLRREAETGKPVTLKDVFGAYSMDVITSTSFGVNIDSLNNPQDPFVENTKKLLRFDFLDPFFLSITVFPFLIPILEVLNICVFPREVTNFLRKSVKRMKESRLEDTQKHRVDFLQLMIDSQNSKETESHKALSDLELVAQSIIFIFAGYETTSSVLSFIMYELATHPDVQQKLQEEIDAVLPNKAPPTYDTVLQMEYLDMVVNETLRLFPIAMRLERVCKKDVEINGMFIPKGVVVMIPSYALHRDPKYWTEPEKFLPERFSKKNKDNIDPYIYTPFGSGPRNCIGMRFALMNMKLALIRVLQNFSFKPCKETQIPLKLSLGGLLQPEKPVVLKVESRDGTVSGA

Cytochrome P450 2C19 = Cytochrome P450 2C19 (Homo sapiens, UniProt P33261); test: Inhibition of CYP2C19 in human liver microsomes in the presence of NADPH incubated for 60 mins by LC-MS/MS analysis; assay type: ADME, Microsome
Cytochrome P450 2C19, sequence (P33261 whole entry): as the sequence (P33261 whole entry) above

Hepatocyte = test: Cytotoxicity against human primary hepatocytes isolated from DZM donor at 0.1 to 10 uM incubated for 72 hrs by cytotox-glo assay; assay type: toxicity, cell-based; details: dose 0.1-10 µM
NCI-H1703 = test: Antitumor activity against human NCI-H1703 cells xenografted in female Balb/c nude mouse assessed as tumor growth inhibition at 40 mg/kg QD, po administered as 3 days on and 4 days off schedule for 4 weeks relative to control; assay type: functional; details: NCI-H1703, 672 h, time 28 day, read-out: TGI
[11] = Drug metabolism in Sprague-Dawley rat plasma by LC-MS/MS analysis; assay type: ADME, cell-free; details: 5 h, 1 µM
LoVo [12] = test: Induction of apoptosis in human LoVo cells assessed as late apoptotic cells at 3 uM incubated for 24 hrs by Annexin-V-FITC-PI staining based flow cytometric analysis (reference value: 13.2 %); assay type: functional
[13] = Drug accumulation in male Beagle dogs at 5 mg/kg, IG measured for 7 days by LC-MS/MS analysis; assay type: ADME, organism-based, Canis lupus familiaris; details: dog, in vivo, po, 168 h, time 7 day
[14] = Drug metabolism in CD-1 mouse liver cells at 2 uM incubated upto 120 mins by LC-MS/MS analysis; assay type: ADME, cell-based; details: 2 h
LoVo [15] = test: Induction of apoptosis in human LoVo cells assessed as viable cells at 1 uM incubated for 24 hrs by Annexin-V-FITC-PI staining based flow cytometric analysis (reference value: 72.1 %); assay type: functional; details: read-out: Activity
CYP3A4 = CYP3A4 (Homo sapiens, UniProt P08684); test: Inhibition of recombinant human CYP3A4 assessed as residual activity at 1 uM in the presence of NADPH incubated for 60 mins by LC-MS/MS analysis relative to control; assay type: ADME; details: read-out: Activity
CYP3A4, sequence (P08684 whole entry): as the sequence (P08684 whole entry) above

[16] = Inhibition of DNA-PK (unknown origin) preincubated for 15 mins and measured after 60 mins by Z-LYTE screening; set-up: species or system Homo sapiens
LoVo [17] = test: Induction of apoptosis in human LoVo cells assessed as viable cells at 3 uM incubated for 24 hrs by Annexin-V-FITC-PI staining based flow cytometric analysis (reference value: 72.1 %); assay type: functional; details: read-out: Activity
[18] = Toxicity in Beagle dogs assessed as effect on cardiovascular system at 5 to 20 mg/kg, po administrated as single dose upto 24 hrs; assay type: organism-based, Canis lupus familiaris; details: dog, in vivo, dose 5-20 mg/kg
[19] = Stability in Beagle dog plasma assessed as half life by LC-MS/MS analysis; assay type: ADME, cell-free, Canis lupus familiaris
[20] = Induction of CYP1A2 mRNA expression in human primary hepatocyte isolated from YND donor at 0.1 to 10 uM incubated for 72 hrs by real-time PCR analysis; assay type: ADME, cell-based; details: hepatocytes, dose 0.1-10 µM
LoVo [21] = test: Induction of apoptosis in human LoVo cells assessed as early apoptotic cells at 1 uM incubated for 24 hrs by Annexin-V-FITC-PI staining based flow cytometric analysis (reference value: 13.7 %); assay type: functional
[22] = Induction of CYP2B6 mRNA expression in human primary hepatocyte isolated from YND donor at 0.1 to 10 uM incubated for 72 hrs by real-time PCR analysis; assay type: ADME, cell-based; details: hepatocytes, dose 0.1-10 µM
LoVo [23] = test: Antitumor activity against human LoVo cells xenografted in female Balb/c nude mouse assessed as tumor growth inhibition at 60 mg/kg QD, po measured every 3 days for 25 days relative to control; assay type: functional; details: 600 h, time 25 day, read-out: TGI
[24] = Drug metabolism in human plasma by LC-MS/MS analysis; assay type: ADME, cell-free

Cytochrome P450 1A2, sequence (P05177 whole entry): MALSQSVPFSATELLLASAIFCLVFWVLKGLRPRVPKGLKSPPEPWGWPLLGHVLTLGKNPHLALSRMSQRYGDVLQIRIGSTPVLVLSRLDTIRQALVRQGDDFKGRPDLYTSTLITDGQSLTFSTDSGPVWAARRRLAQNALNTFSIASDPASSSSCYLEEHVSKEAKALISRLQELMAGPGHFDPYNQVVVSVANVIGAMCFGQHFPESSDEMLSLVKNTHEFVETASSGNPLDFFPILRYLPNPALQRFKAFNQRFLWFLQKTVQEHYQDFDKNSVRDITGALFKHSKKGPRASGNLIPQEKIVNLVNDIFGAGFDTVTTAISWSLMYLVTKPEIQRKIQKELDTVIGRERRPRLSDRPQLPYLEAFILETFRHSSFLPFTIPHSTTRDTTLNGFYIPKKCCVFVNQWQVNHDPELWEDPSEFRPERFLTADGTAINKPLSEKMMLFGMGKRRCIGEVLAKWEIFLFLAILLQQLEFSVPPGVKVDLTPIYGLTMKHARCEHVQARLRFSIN

In the case of Cc1nn(-c2cccnc2)c(C)c1-c1cc(N2CC3CCC(C2)O3)nc2c(-c3ccn[nH]3)cnn12.O=C(O)/C=C/C(=O)O, the IC50 (Cytochrome P450 1A2) is reported as over 100 µM, the permeability [1] is reported as “Permeable” and the activity at 1 h, 1 µM (CYP2C19) is reported as 109%. For the same compound, the activity at 1 h, 1 µM (CYP2D6) was 101%, the Drug uptake [2] was “Active” and the Activity [3] was “Active”. For the same compound, the Drug uptake [4] was “Active”, the Activity [5] was “Toxic” and the Drug metabolism [6] was “metabolite_detected”. The IC50 (Cytochrome P450 2C9) was 32.8 µM, the fraction unbound at 5 h, 1 µM [7] was 0.256 and the Activity [8] was “Non-toxic”. The permeability [9] was “Permeable”, the permeability [10] was “Permeable” and the activity at 1 h, 1 µM (CYP2B6) was 94.1%. For the same compound, the IC50 (Cytochrome P450 3A4) was 41.5 µM, the IC50 (Cytochrome P450 2C19) was 54.2 µM and the Activity (Hepatocyte) was “Non-toxic”. The inhibition in vivo at 40 mg/kg (NCI-H1703) was 36.2%, the Drug metabolism [11] was “metabolite_notdetected” and the Activity (LoVo [12]) was 19.8%. The Drug uptake [13] was “Active”, the Drug metabolism [14] was “metabolite_detected” and the viability at 1 µM (LoVo [15]) was 65%. It also gave an activity at 1 h, 1 µM (CYP3A4) of 73.3%, an IC50 [16] of 0.24 µM and a viability at 3 µM (LoVo [17]) of 53.7%. The Activity [18] was “Non-toxic”, the half-life [19] was over 2 h and the Activity [20] was “Not_active”. For the same compound, the Activity (LoVo [21]) was 18.2%, the Activity [22] was “Not_active” and the inhibition in vivo at 60 mg/kg (LoVo [23]) was 67.4%. The Drug metabolism [24] was “metabolite_notdetected”.
